In patent US9226928B2, “Spirocyclic isoxazoline parasiticidal combinations” (Zoetis Services LLC, priority 2012, dated 2016):

Tested on: Haemonchus contortus L3 resistant strain
Experiment: In vitro motility assay, H. contortus L3 resistant strain
Type: cell-based
Conditions: 96 hours; for H. contortus L3 resistant MED: minimum efficacious dose, visual motility assessment; for % Motility: vs untreated control, LemnaTec, moxidectin 0.3 μM, pyrantel 10 μM, Compound A 100 μM, alone or combined

Row | SMILES | H. contortus L3 resistant MED [µM] | % Motility [%]
1 | CO/N=C1\C[C@]2(C[C@@H]3C[C@@H](C/C=C(\C)C[C@@H](C)/C=C/C=C4\CO[C@@H]5[C@H](O)C(C)=C[C@@H](C(=O)O3)[C@]45O)O2)O[C@H](/C(C)=C/C(C)C)[C@H]1C [Moxidectin, moxidectin] | 1 | 64.3
2 | CS(=O)(=O)CC(=O)N1CC2(C1)OCc1cc(C3=NO[C@@](c4cc(Cl)c(F)c(Cl)c4)(C(F)(F)F)C3)ccc12 [Compound A, (S)-1-(5′-(5-(3,5-dichloro-4-fluorophenyl)-5-(trifluoromethyl)-4,5-dihydroisoxazol-3-yl)-3′H-spiro[azetidine-3,1′-isobenzofuran]-1-yl)-2-(methylsulfonyl)ethanone] | >100 | 69.0
3 | CN1CCCN=C1/C=C/c1cccs1 [Pyrantel, pyrantel pamoate] | 33 | 80.0
